The conditions of this data set: Liquid.

± gives the expanded uncertainty stated by the source.

This note sets out measurements from the NIST ThermoML archive (doi:10.1016/j.fluid.2017.03.010).

Consider `CCO` [ethanol], for which the Normal boiling temperature (othmer still) was 78.30 ± 1.6 °C.
As to `O` [water], the Normal boiling temperature (Othmer still) stood at 100.00 ± 1.6 °C.
